Among the data in patent publication US20240239781A1, “1H-PYRAZOLE DERIVATIVES AS SIGMA LIGANDS” (ACONDICIONAMIENTO TARRASENSE, priority 2021, published 2024) are Ki values, retold here.

SMILES strings stand for the structures.

One experiment has as its target T1, human σ2/TMEM97 receptor (Homo sapiens, UniProt Q5BJF2).
T1 construct: expressed in transfected cells; host or cells: HEK-293
The experiment is described as follows: Binding assay to human σ2/TMEM97 receptor ([3H]-DTG, transfected HEK-293 membranes). The note with it: class scale, read-out: Binding σ-2 Ki. The method, then: Transfected HEK-293 membranes (15 μg) were incubated with 10 nM [^3H]-1,3-Di-o-tolylguanidine (DTG) in assay buffer containing Tris-HCl 50 mM at pH 8.0. NSB (non-specific binding) was measured by adding 10 μM haloperidol. The binding of the test compound was measured at either one concentration (% inhibition at 1 or 10 μM) or five different concentrations to determine affinity values (Ki). Plates were incubated at 25° C. for 120 minutes. After the incubation period, the reaction mix was transferred to MultiScreen HTS, FC plates (Millipore), filtered and washed 3 times with ice-cold 10 mM Tris-HCL (pH 8.0). Filters were dried and counted at approximately 40% efficiency in a MicroBeta scintillation counter (Perkin-Elmer) using EcoScint liquid scintillation cocktail.

The target in the next experiment is T2, human σ1 receptor (Homo sapiens, UniProt Q99720).
T2 construct: expressed in transfected cells; host or cells: HEK-293
T2 sequence (Q99720 whole entry): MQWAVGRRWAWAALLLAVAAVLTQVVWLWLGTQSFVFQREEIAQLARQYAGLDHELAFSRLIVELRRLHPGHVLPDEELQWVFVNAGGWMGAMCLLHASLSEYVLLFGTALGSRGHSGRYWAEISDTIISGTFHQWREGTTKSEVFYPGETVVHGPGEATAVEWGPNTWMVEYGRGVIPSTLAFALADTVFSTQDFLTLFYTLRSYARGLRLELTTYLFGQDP
Nature of the experiment: Human σ1 receptor radioligand assay ([3H](+)-pentazocine, transfected HEK-293 membranes). As to conditions: class scale, read-out: Binding σ-1 Ki. The protocol: Transfected HEK-293 membranes (7 μg) were incubated with 5 nM of [^3H](+)-pentazocine in assay buffer containing Tris-HCl 50 mM at pH 8. NBS (non-specific binding) was measured by adding 10 μM haloperidol. The binding of the test compound was measured at either one concentration (% inhibition at 1 or 10 μM) or five different concentrations to determine affinity values (Ki). Plates were incubated at 37° C. for 120 minutes. After the incubation period, the reaction mix was then transferred to MultiScreen HTS, FC plates (Millipore), filtered and plates were washed 3 times with ice-cold 10 mM Tris-HCL (pH7.4). Filters were dried and counted at approximately 40% efficiency in a MicroBeta scintillation counter (Perkin-Elmer) using EcoScint liquid scintillation cocktail.

T1 sequence (Q5BJF2 whole entry): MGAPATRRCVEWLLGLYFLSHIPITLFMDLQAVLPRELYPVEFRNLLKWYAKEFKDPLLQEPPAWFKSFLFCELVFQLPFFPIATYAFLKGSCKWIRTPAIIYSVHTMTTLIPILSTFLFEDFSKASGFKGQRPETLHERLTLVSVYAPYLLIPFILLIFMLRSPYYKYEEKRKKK

Turning to `CC(C)CCNC1CCCCN(Cc2c(-c3cc(C(C)C)on3)nn(C)c2Cl)C1` (centres unmarked) [Example 17, 1-((5-Chloro-3-(5-isopropylisoxazol-3-yl)-1-methyl-1H-pyrazol-4-yl)methyl)-N-isopentylazepan-3-amine], the Ki at human σ2/TMEM97 receptor is above 1000 nM; at human σ1 receptor, 100 to 500 nM.
Taken in the same sequence, the figures for `CCn1nc(-c2cc(C3CC3)on2)c(C(=O)N2CCC3(CCN(CCC(C)(C)C)CC3)CC2)c1Cl` [Example 190, (5-Chloro-3-(5-cyclopropylisoxazol-3-yl)-1-ethyl-1H-pyrazol-4-yl)(9-(3,3-dimethylbutyl)-3,9-diazaspiro[5.5]undecan-3-yl)methanone] were below 100 nM and 100 to 500 nM.
Taken in the same sequence, the figures for `CCn1nc(-c2cc(C(C)C)on2)c(C(=O)NC2CCN(CCC(C)(C)C)CC2)c1Cl` [Example 162, 5-Chloro-N-(1-(3,3-dimethylbutyl)piperidin-4-yl)-1-ethyl-3-(5-isopropylisoxazol-3-yl)-1H-pyrazole-4-carboxamide] were below 100 nM and below 100 nM.
Taken in the same sequence, the figures for `CCn1nc(-c2cc(C)on2)c(CN2CC3(CCN(CCC(C)(C)C)CC3)CC2=O)c1Cl` [Example 225, 2-((5-Chloro-1-ethyl-3-(5-methylisoxazol-3-yl)-1H-pyrazol-4-yl)methyl)-8-(3,3-dimethylbutyl)-2,8-diazaspiro[4.5]decan-3-one] were below 100 nM and 100 to 500 nM.
For `Cn1cc(-c2nn(C)c(Cl)c2C(=O)N2CCCC3(CCN(CCC(C)(C)C)CC3)C2)cn1` [Example 135, (5-Chloro-1,1′-dimethyl-1H,1′H-[3,4′-bipyrazol]-4-yl)(9-(3,3-dimethylbutyl)-2,9-diazaspiro[5.5]undecan-2-yl)methanone], the Ki on human σ2/TMEM97 receptor was below 100 nM; on human σ1 receptor, above 1000 nM.
For `CCn1nc(-c2ccon2)c(CC(=O)Nc2ccc3c(c2)CCN(CCC(C)(C)C)C3)c1Cl` [Example 211, 2-(5-Chloro-1-ethyl-3-(isoxazol-3-yl)-1H-pyrazol-4-yl)-N-(2-(3,3-dimethylbutyl)-1,2,3,4-tetrahydroisoquinolin-6-yl)acetamide], the Ki on human σ2/TMEM97 receptor and at human σ1 receptor was below 100 nM throughout.
For `CCn1nc(-c2cc(C)on2)c(C(=O)N2CC3(CCN(CCC(C)(C)C)CC3)C2)c1Cl` [Example 184, (5-Chloro-1-ethyl-3-(5-methylisoxazol-3-yl)-1H-pyrazol-4-yl)(7-(3,3-dimethylbutyl)-2,7-diazaspiro[3.5]nonan-2-yl)methanone], the Ki is below 100 nM on human σ2/TMEM97 receptor and 100 to 500 nM on human σ1 receptor.
In the case of `Cc1cc(-c2nn(C)c(F)c2C(=O)N2CCC3(CCN(CCC(C)(C)C)CC3)CC2)no1` [Example 98, (9-(3,3-Dimethylbutyl)-3,9-diazaspiro[5.5]undecan-3-yl)(5-fluoro-1-methyl-3-(5-methylisoxazol-3-yl)-1H-pyrazol-4-yl)methanone], the values for the Ki on human σ2/TMEM97 receptor and on human σ1 receptor were below 100 nM and 500 to 1000 nM, respectively.
For `CC(C)CCN[C@H]1CCCCN(Cc2c(-c3noc4c3COCC4)nn(C)c2Cl)C1` [Example 40, (S)-1-((5-Chloro-3-(6,7-dihydro-4H-pyrano[3,4-d]isoxazol-3-yl)-1-methyl-1H-pyrazol-4-yl)methyl)-N-isopentylazepan-3-amine], in that order: 100 to 500 nM and 100 to 500 nM.
Taken in the same sequence, the figures for `CCn1nc(-c2cc(C)on2)c(C(=O)NC2CCCN(CCC(C)(C)C)C2)c1Cl` (centres unmarked) [Example 202, 5-Chloro-N-(1-(3,3-dimethylbutyl)piperidin-3-yl)-1-ethyl-3-(5-methylisoxazol-3-yl)-1H-pyrazole-4-carboxamide] were 100 to 500 nM and 100 to 500 nM.
For `Cc1cc(-c2nn(C)c(Cl)c2CN2CCC(CN(CC(C)C)CC(C)C)C2)no1` (centres unmarked) [Example 42, N-((1-((5-Chloro-1-methyl-3-(5-methylisoxazol-3-yl)-1H-pyrazol-4-yl)methyl)pyrrolidin-3-yl)methyl)-/-isobutyl-2-methylpropan-1-amine], in that order: 100 to 500 nM and above 1000 nM.
Turning to `CC(C)CCNC1CCCCN(Cc2c(-c3ccon3)nn(C)c2Cl)C1` (centres unmarked) [Example 34, 1-((5-Chloro-3-(isoxazol-3-yl)-1-methyl-1H-pyrazol-4-yl)methyl)-N-isopentylazepan-3-amine], the Ki lay in the range of 100 to 500 nM on human σ2/TMEM97 receptor and 500 to 1000 nM at human σ1 receptor.
For `Cc1cc(-c2nn(C)c(Cl)c2CN2CCC3(CCN(CCC(C)(C)C)C3)C2)no1` (centres unmarked) [Example 54, 3-(5-Chloro-4-((7-(3,3-dimethylbutyl)-2,7-diazaspiro[4.4]nonan-2-yl)methyl)-1-methyl-1H-pyrazol-3-yl)-5-methylisoxazole], in that order: below 100 nM and below 100 nM.
Taken in the same sequence, the figures for `Cc1cc(-c2nn(C)c(Cl)c2CN2CC3(CCN(CCC(C)(C)C)C3)C2)no1` [Example 51, 3-(5-Chloro-4-((6-(3,3-dimethylbutyl)-2,6-diazaspiro[3.4]octan-2-yl)methyl)-1-methyl-1H-pyrazol-3-yl)-5-methylisoxazole] were below 100 nM and below 100 nM.
For the molecule `CCCn1nc(-c2cc(C)on2)c(CN2CC3(CCN(CCC(C)(C)C)CC3)CC2=O)c1Cl` [Example 226, 2-((5-Chloro-3-(5-methylisoxazol-3-yl)-1-propyl-1H-pyrazol-4-yl)methyl)-8-(3,3-dimethylbutyl)-2,8-diazaspiro[4.5]decan-3-one], the Ki was below 100 nM at human σ2/TMEM97 receptor and 100 to 500 nM at human σ1 receptor.
Taken in the same sequence, the figures for `Cc1cc(-c2nn(C)c(Cl)c2CN2CCCCC(NCCC(C)(C)C)C2)no1` (centres unmarked) [Example 8, 1-((5-Chloro-1-methyl-3-(5-methylisoxazol-3-yl)-1H-pyrazol-4-yl)methyl)-N-(3,3-dimethylbutyl)azepan-3-amine] were 500 to 1000 nM and 100 to 500 nM.
Taken in the same sequence, the figures for `Cc1cc(-c2nn(-c3ccncc3)c(Cl)c2C(=O)N2CCC3(CCN(CCC(C)(C)C)CC3)CC2)no1` [Example 170, (5-Chloro-3-(5-methylisoxazol-3-yl)-1-(pyridin-4-yl)-1H-pyrazol-4-yl)(9-(3,3-dimethylbutyl)-3,9-diazaspiro[5.5]undecan-3-yl)methanone] were below 100 nM and 100 to 500 nM.
For `Cc1cc(-c2nn(C)c(Cl)c2C(=O)N2CCCC(CN(C)CC(C)C)C2)no1` (centres unmarked) [Example 122, (5-Chloro-1-methyl-3-(5-methylisoxazol-3-yl)-1H-pyrazol-4-yl)(3-((isobutyl(methyl)amino)methyl)piperidin-1-yl)methanone], in that order: above 1000 nM and above 1000 nM.
Consider `Cc1cc(-c2nn(C)c(Cl)c2CN2CCCCC(NCCC(C)C)C2=O)no1` (centres unmarked) [Example 117, 1-((5-Chloro-1-methyl-3-(5-methylisoxazol-3-yl)-1H-pyrazol-4-yl)methyl)-3-(isopentylamino)azepan-2-one], for which the Ki on human σ2/TMEM97 receptor is above 1000 nM; at human σ1 receptor it was 100 to 500 nM.
Taken in the same sequence, the figures for `Cc1cc(-c2nn(C)c(Cl)c2CN2CCC(CNCC(C)C)CC2)no1` [Example 43, N-((1-((5-Chloro-1-methyl-3-(5-methylisoxazol-3-yl)-1H-pyrazol-4-yl)methyl)piperidin-4-yl)methyl)-2-methylpropan-1-amine] were 500 to 1000 nM and 500 to 1000 nM.
For `Cc1cc(-c2nn(C)c(Cl)c2C(=O)N2CCCCC(N(C)CCc3ccccc3)C2)no1` (centres unmarked) [Example 110, (5-Chloro-1-methyl-3-(5-methylisoxazol-3-yl)-1H-pyrazol-4-yl)(3-(methyl(phenethyl)amino)azepan-1-yl)methanone], in that order: 100 to 500 nM and 500 to 1000 nM.
Taken in the same sequence, the figures for `Cc1conc1-c1nn(C)c(Cl)c1C(=O)N1CCC2(CCN(CCC(C)(C)C)CC2)CC1` [Example 100, (5-Chloro-1-methyl-3-(4-methylisoxazol-3-yl)-1H-pyrazol-4-yl)(9-(3,3-dimethylbutyl)-3,9-diazaspiro[5.5]undecan-3-yl)methanone] were below 100 nM and 500 to 1000 nM.
Regarding `CCn1nc(-c2ccon2)c(CC(=O)N2CCCC3(CCN(CCC(C)(C)C)CC3)C2)c1Cl` [Example 218, 2-(5-Chloro-1-ethyl-3-(isoxazol-3-yl)-1H-pyrazol-4-yl)-1-(9-(3,3-dimethylbutyl)-2,9-diazaspiro[5.5]undecan-2-yl)ethan-1-one], the Ki is below 100 nM at human σ2/TMEM97 receptor and above 1000 nM on human σ1 receptor.
Taken in the same sequence, the figures for `CCn1nc(-c2ccon2)c(CC(=O)N2CCC3(CCN(CCC(C)(C)C)CC3)CC2)c1Cl` [Example 209, 2-(5-Chloro-1-ethyl-3-(isoxazol-3-yl)-1H-pyrazol-4-yl)-1-(9-(3,3-dimethylbutyl)-3,9-diazaspiro[5.5]undecan-3-yl)ethan-1-one] were below 100 nM and below 100 nM.
For `Cc1cc(-c2nn(C)c(Cl)c2CN2CCC(CNCCc3ccccc3)C2)no1` (centres unmarked) [Example 45, N-((1-((5-Chloro-1-methyl-3-(5-methylisoxazol-3-yl)-1H-pyrazol-4-yl)methyl)pyrrolidin-3-yl)methyl)-2-phenylethanamine], in that order: 100 to 500 nM and 100 to 500 nM.
